Where “and” joins values, the source holds several entries; their conditions need not be identical. Equal values may be shown once.
What was measured:
TNFα = assay: serum TNFα ELISA 24 h after zymosan injection; format: in vivo, mouse; settings: AM630 added to 1D
Procedure: Blood was collected 24 h after zymosan injection, and the sera were assayed for TNFα using a mouse TNFα ELISA kit (R&D Systems, Minneapolis, MN, USA), according to the manufacturer's instructions.

[1] = system: zymosan-induced hyperalgesia; assay: zymosan mouse paw inflammatory pain model, von Frey test, with or without CB2 antagonists; format: in vivo; settings: addition of AM630, 24 h
Procedure: (§1) To induce inflammation, 40 μL of 1.5% (w/v) zymosan A (Sigma) suspended in 0.9% saline was injected into the sub-planter surface of the right hind paw of the mice. Immediately after zymosan injection, antagonists were injected intraperitoneally (IP) and after 30 minutes, the fenchone derivatives dissolved in 0.1 mL vehicle containing ethanol:Cremophore:saline at a ratio of 1:1:18 were injected. Control mice were injected with the vehicle only. After 2, 6, and 24 hrs, paw swelling, and pain perception were measured.
(§2) Specifically, measurement of Oedema Formation was assessed by monitoring paw swelling via calibrated calipers (0.01 mm), 6 and 24 hrs following injections of zymosan alone and/or the test compounds. Pain hyperalgesia was evaluated by the paw withdrawal von Frey test at 6, and 24 h following injections of zymosan and/or the test compounds. […] In this study, only 1.4-60 g corresponding to 4.17 to 5.88 log of force was used, to test the mouse sensitivity to a mechanical stimulus on the swollen paw. The measurements were performed in a quiet room. Before paw pain measurements, the animals were held for 10 sec. The trained investigator applied the filament to the central area of the hind paw with gradual increasing size. The test consisted of poking the middle of the hind paw to provoke a flexion reflex followed by a clear flinch response after paw withdrawal. Each one of the von Frey filaments was applied for approximately 3-4 s to induce the end-point reflex. The first testing was done by using the force filament of 1.4 g. If there was no withdrawal response, the next higher stimulus was tried. The mechanical threshold force (in grams (g)) was defined as the lowest force imposed by two von Frey monofilaments of various sizes, required to produce a paw retraction. The untreated left hind paw served as a control.

[2] = system: zymosan-induced paw swelling; assay: zymosan mouse paw inflammatory pain model, paw swelling, with or without CB2 antagonists; format: in vivo; settings: 10 mg/kg AM630 with 1D, 24 h
Procedure: as §1, §2

[3] = system: zymosan-induced swelling of hind paw; assay: zymosan-induced hind paw swelling in mice (5b, 5d, CBD); format: in vivo, mouse
Procedure: (§3) Cannabidiol (CBD), a major constituent of Cannabis, resembles fenchone derivatives in structure. It has powerful anti-inflammatory and anti-anxiety properties and therefore it is used as a positive control. […] In accordance with these findings, the anti-nociceptive effect, as determined by the von Frey monofilament assay peaked at 6 h (p<0.01) (FIG. 10C).
(§4) To induce inflammation, 40 μL of 1.5% (w/v) zymosan A (Sigma) suspended in 0.9% saline was injected into the sub-planter surface of the right hind paw of the mice. Immediately after zymosan injection, fenchone derivative was injected intraperitoneally (i.p.) after the compounds were dissolved in 0.1 mL vehicle containing ethanol:Cremophore:saline at a ratio of 1:1:18. Control mice were injected with the vehicle only. After 2, 6 and 24 hrs, paw swelling and pain perception were measured.
The paw swelling (thickness) was measured by calibrated calipers (0.01 mm), 2, 6 and 24 hrs following injections of zymosan alone or Fenchone derivatives.

[4] = system: zymosan-induced hyperalgesia; assay: von Frey nociceptive filament assay after zymosan (5b, 5d, CBD); format: in vivo, mouse
Procedure: as §3, §4
The hyperalgesia was evaluated by the paw withdrawal von Frey test at 2, 6, and 24 hrs following injections of zymosan and/or the test compounds. […] In this study, only 1.4-60 g corresponding to 4.17 to 5.88 log of force was used, to test the mouse sensitivity to a mechanical stimulus on the swollen paw. The measurements were performed in a quiet room. Before paw pain measurements, the animals were held for 10 sec. The trained investigator applied the filament to the central area of the hind paw with gradual increasing size. The test consisted of poking the middle of the hind paw to provoke a flexion reflex followed by a clear flinch response after paw withdrawal. Each one of the von Frey filaments was applied for approximately 3-4 s to induce the end-point reflex. The first testing was done by using the force filament of 1.4 g. If there was no withdrawal response, the next higher stimulus was tried. The mechanical threshold force (in grams (g)) was defined as the lowest force imposed by two von Frey monofilaments of various sizes, required to produce a paw retraction. The untreated left hind paw served as a control.

hCB2R [5] = target: T1, hCB2R (Homo sapiens (Human), UniProt P34972); assay: [35S]GTPγS binding assay, hCB2R CHO cell membranes; format: biochemical; settings: for functional activity at hCB2R (agonist / inverse agonist): [35S]GTPγS binding
Procedure: Functional Characterization.
The method used for measuring agonist-stimulated binding of [^35S]GTPγS was based on a described protocol. The assays were carried out with GTPγS assay buffer (50 mM Tris HCl (pH 7.4), 0.2 mM EGTA, 9 mM MgCl2, 150 mM NaCl, 1 mg/ml BSA). Briefly, membranes (5 μg protein) were incubated in assay buffer containing 100 μM GDP, 0.05 nM [^35S]GTPγS, test compounds at various concentrations in siliconized glass tubes. Bound ligand was separated from free ligand by vacuum filtration. Nonspecific binding was determined using 10 μM GTPS. Basal binding was assayed in the absence of the ligand and in the presence of GDP.

mCB1R = mCB1R (Mus musculus (Mouse), UniProt P47746); assay: [3H]CP-55,940 competition displacement binding, crude membranes from mouse brain; settings: displacement of [3H]CP-55,940; NB = No binding detected at concentrations up to 10 μM; read-out: Ki (nM) mCB1R
Procedure: (§5) Affinity for Cannabinoid Receptors. The compounds were further characterized using a radioligand binding assay to determine their affinities for CB1R and CB2R based on each test compound's ability to displace the radiolabeled CB1R/CB2R agonist CP-55,940 from membranes prepared from a mouse brain (a source of CB1R) and membranes of cells expressing the human CB2R. […] Therefore, the compounds were assayed using membranes from CHO-K1 cells expressing the human CB2R (hCB2R).
(§6) Membranes from cells expressing human CB2R were purchased from Charles River, (Cat #A308; Ohio, US). Solutions of test compounds ranging from 0.1 nM to 10 mM were prepared in DMSO. The desired amount of membrane preparation was diluted with ice-cold assay buffer (50 mM Tris-HCl, 2.5 mM EDTA, 5 mM MgCl2, 0.1% BSA, pH 7.4) and was vortexed. […] The assays were incubated for 90 minutes at 30° C. and then immediately filtered on WHATMAN GF/B FilterPaper (Fired) using a Brandel M-24R Harvester followed by six washes with ice cold wash buffer (50 mM Tris-HCl, 2.5 mM EDTA, 5 mM MgCl2, 0.1% BSA, pH 7.4). Radioactivity was detected by adding the FilterPaper directly to the ULTIMA GOLD scintillation cocktail (PerkinElmer), incubation at 20° C. for 60 min and then counted using a Tri-Carb 4910TR liquid scintillation counter.

hCB2R [6] = target: T1, hCB2R; assay: [3H]CP-55,940 competition displacement binding, membranes of CHO-K1 cells expressing human CB2R
Procedure: as §5, §6

[7] = system: medial meniscal tear (MMT) post-traumatic OA; assay: rat MMT model, histopathology of medial tibial joint 28 days post MMT; format: in vivo; settings: FGF18 60 μg/mL IA
Procedure: (§7) The rat OA model employed was surgically-induced medial meniscal tear (MMT), wherein rats were anesthetized with Isoflurane (VetOne, catalogue No. 502017), and the right knee area was prepared for surgery. A skin incision was made over the medial aspect of the knee, and the medial collateral ligament was exposed by blunt dissection and then transected. The medial meniscus was cut through the full thickness to simulate a complete tear. Skin and subcutis were closed with 4-0 Coated Vicryl (polyglactin 910) Violet Braided Suture (Ethicon, catalogue No. J399H), and slight hand pressure was applied to the wound for approximately 3 minutes for hemostasis. Subcutaneous (SC) dose of buprenorphine (0.05 mg/kg) administered after the animal awakened post-surgery. Rats were weighed daily on study days −1 through 7 and again on days 14, 21, and 28 (prior to necropsy). […] The animals were euthanized for necropsy 28 days post-surgery, following Isoflurane anesthesia, and bled to exsanguination followed by bilateral pneumothorax.
Right knees were collected from all animals and trimmed of muscle and patellae. The trimmed joints were placed in 10% neutral buffered formalin (NBF) for histologic processing and evaluation. Samples were fixed for 3 days in 4% paraformaldehyde and decalcified for 21 days in 10% EDTA, pH=7.5. Then following dehydration in a graded series of ethanol washes, joints were embedded in paraffin and sectioned to 7 μm slices, following trimming off 1 mm until the tibiofemoral compartments are fully observed. Sections were obtained from each knee and stained with toluidine blue (0.04% in 0.2 M acetate buffer, Ph=4.0), based on a modified version of the methods used in Schmitz, et al. (2010), (11). Histopathology was carried out using an ocular micrometer. The following structural histological characterization was carried out:
Regional differences across the tibial plateau were taken into consideration by dividing each section into three zones: (1) outside, (2) middle, and (3) inside. In the surgical OA model, the outside (zone-1) and middle (zone-2) thirds are most severely affected, and milder changes are present on the inside third (zone 3). When zones were scored individually, scores were assigned based on percent area of the zone affected. General cartilage degeneration including chondrocyte death/loss, proteoglycan (PG) loss, and collagen loss or fibrillation. Zones were scored individually (0-5; 5 representing sever damage; SD3), and a sum of all three zones was calculated (termed “Total Joint scores”).
The zone related cartilage depth is calculated from the projected articular surface tot the tidemark. Reduced ratios embody less detected cartilage width vs projected cartilage with area, per zone.
Osteophyte thickness (tidemark to furthest point extending toward synovium) was measured and scored according to a range from 0-5, as in SD4.
Damage to the calcified cartilage layer and subchondral bone was scored using the criteria in SD5. Generally damage was considered as invagination of deep zone cartilage into the subchondral bone layer.
[…] Descriptions of other changes (typically fibrosis, or acute inflammation/neutrophil infiltration extending into the lateral compartment usually associated with IA treatments) were also provided, if present.

[8] = system: medial meniscal tear (MMT) post-traumatic OA; assay: rat medial meniscal tear (MMT) model, body weight and dynamic weight bearing; format: in vivo; settings: FGF18 60 μg/mL IA
Procedure: Initially, the required amount of HU308 dissolved in ethanol followed by addition of […] with vigorous mechanical agitation to form viscous micelle solution. Finally, the micelle solution was diluted in ice cold saline for injection or culture assays. Vehicle solution consisted of ethanol, cremophor and saline at 1:1:18 ratio. For intra-articular (IA) dosing 50 μL was injected into the tibiofemoral joint, at two doses; 8 and 24 μg/mL. Vehicle control contained 1:1:18 ethanol/Cremophor/saline, while positive control was of IA administered 60 μg/mL FGF-18 (R&D Systems, catalogue No. 8988-F18-050, lot No. BVE0521071) for IA dosing at 50 μL/knee.
as §7

T1 sequence (P34972 whole entry): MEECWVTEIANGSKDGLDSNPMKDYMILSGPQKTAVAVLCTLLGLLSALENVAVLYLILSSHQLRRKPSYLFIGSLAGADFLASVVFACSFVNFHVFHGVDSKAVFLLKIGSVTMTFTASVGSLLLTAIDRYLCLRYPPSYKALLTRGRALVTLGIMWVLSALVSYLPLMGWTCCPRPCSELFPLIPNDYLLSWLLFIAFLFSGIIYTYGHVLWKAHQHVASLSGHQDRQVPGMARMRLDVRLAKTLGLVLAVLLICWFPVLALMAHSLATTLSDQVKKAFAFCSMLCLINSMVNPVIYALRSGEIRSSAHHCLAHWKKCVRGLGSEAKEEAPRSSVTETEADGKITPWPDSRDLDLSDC
mCB1R, sequence (P47746 whole entry): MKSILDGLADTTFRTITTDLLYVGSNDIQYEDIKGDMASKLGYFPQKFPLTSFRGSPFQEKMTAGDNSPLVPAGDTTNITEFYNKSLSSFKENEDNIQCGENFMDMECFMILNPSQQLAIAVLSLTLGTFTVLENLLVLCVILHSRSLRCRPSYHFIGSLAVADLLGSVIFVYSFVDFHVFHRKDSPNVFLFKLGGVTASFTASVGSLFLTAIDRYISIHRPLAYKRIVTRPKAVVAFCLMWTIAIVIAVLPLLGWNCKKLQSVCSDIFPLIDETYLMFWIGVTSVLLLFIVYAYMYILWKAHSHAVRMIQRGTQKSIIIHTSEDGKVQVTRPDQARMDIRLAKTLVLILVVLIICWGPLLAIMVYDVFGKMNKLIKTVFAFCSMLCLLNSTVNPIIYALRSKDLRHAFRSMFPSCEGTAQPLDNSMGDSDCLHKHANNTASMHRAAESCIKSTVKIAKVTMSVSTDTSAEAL

## COc1ccc(C(=O)c2c(C)n(CCN3CCOCC3)c3cc(I)ccc23)cc1 [AM630, reference compound]
TNFα
  effect of antagonist on the 1D reduction of TNF-α: abolished
[1]
  effect of antagonist on the 1D von Frey effect: reversed
[2]
  effect of antagonist on the 1D-reduced swelling: fully inhibited its effect

## C=C(C)[C@@H]1CCC(C)=C[C@H]1c1c(O)cc(CCCCC)cc1O [CBD, Cannabidiol, reference compound]
[3]; 5 mg/kg ip, 6 h, FIG. 10A
  inhibition of inflammation (paw swelling): 40%
[3]; 5 mg/kg ip, 24 h, FIG. 10A
  inhibition of inflammation (paw swelling): 43%
[3]; positive control in the 5d experiment (FIG. 10B), 6 h
  inhibition of inflammation (paw swelling): 58%
[3]; positive control in the 5d experiment (FIG. 10B), 24 h
  inhibition of inflammation (paw swelling): 78%
[4]; CBD positive control
  time at which the anti-nociceptive effect peaked (von Frey): 6 h

## CCCCCc1cc(O)c(C2(O)C3(C)CCC(C3)C2(C)C)c(OC)c1 (single isomer, unassigned) [Compound 5b, 2-(2′-hydroxy-6′-methoxy-4′-pentylphenyl)-1,3,3-trimethylbicyclo[2.2.1]heptan-2-ol]
hCB2R [5]
  functional activity at hCB2R (agonist / inverse agonist): agonist
[4]; 10 and 25 mg/kg ip, after 6 and 24 h
  anti-nociceptive effect (von Frey): strong anti-nociceptive effects

## CCCCCCC(C)(C)c1cc(O)c(C2(O)C3(C)CCC(C3)C2(C)C)c(OC)c1 (stereo not shown) [Compound 5d, 2-(2′-hydroxy-6′-methoxy-4′-(2″-methyloctan-2″-yl)phenyl)-1,3,3-trimethyl-bicyclo[2.2.1]heptan-2-ol]
hCB2R [5]
  functional activity at hCB2R (agonist / inverse agonist): agonist
hCB2R [5]; [35S]GTPγS binding to hCB2R, two independent experiments in triplicate
  EC50: 14.8 nM
hCB2R [5]; percentage of HU-308 response at 1 μM
  E(max) %: 105.05%
[3]; 25 mg/kg ip, 24 h
  inhibition of inflammation (paw swelling): 55% and 56%
[3]; 50 mg/kg ip, 2 h
  inhibition of inflammation (paw swelling): 38%
[3]; 50 mg/kg ip, 6 h
  inhibition of inflammation (paw swelling): 67%
[3]; 50 mg/kg ip, 24 h
  inhibition of inflammation (paw swelling): 56%
mCB1R
  Ki: 451 nM
hCB2R [6]; displacement of [3H]CP-55,940
  Ki: 24.6 nM
hCB2R [6]; selectivity index from Ki values
  mCB1R/hCB2R: 18.4
[4]; 25 and 50 mg/kg ip, after 6 h
  anti-nociceptive effect (von Frey): moderate anti-nociceptive effects

## FGF18: positive control, IA administered 60 μg/mL FGF-18 (R&D Systems); anabolic effect to articular cartilage
[7]
  mean zonal depth ratios: reduced depth ratios
  zone 3 cartilage degeneration score: no beneficial effect
[7]; vs 1D low dose and Vehicle
  total zonal cartilage degeneration scores: significantly reduced degenerative scores
[7]; vs all groups
  medial synovial scores: highest
  osteophyte measurements and scores: significantly higher measurements and scores
[7]; vs the 1D high dose
  bone damage: relatively reduced levels
[8]
  cumulative area under the curves for dynamic weight bearing (DWB): highest values

— patent US20250002435A1, “ARYLATED FENCHONE DERIVATIVES, COMPOSITIONS COMPRISING THEM, PROCESSES FOR THEIR PREPARATION AND USES THEREOF” (priority 2021, published 2025)
